Experimental data as given in ChEMBL document CHEMBL1147859, “Thienopyrimidinone bis-aminopyrrolidine ureas as potent melanin-concentrating hormone receptor-1 (MCH-R1) antagonists” (Bioorg Med Chem Lett, 2007).

How the values were obtained:
[1] = molecular target: T1, Melanin-concentrating hormone receptor 1 (Homo sapiens, UniProt Q99705); assay: Binding affinity to human MCHR1
[2] = Intrinsic clearance in human liver microsome; assay type: ADME; conditions: liver microsomes
[3] = molecular target: T1, Melanin-concentrating hormone receptor 1; assay: Antagonist activity at human MCHR1 by [35S]GTP-gamma-S binding assay; assay type: functional
Cytochrome P450 2D6 = Cytochrome P450 2D6 (Homo sapiens, UniProt P10635); assay: Inhibition of CYP2D6; assay type: ADME; conditions: for Activity: human
Chain of Cytochrome P450 2D6 (P10635 whole entry): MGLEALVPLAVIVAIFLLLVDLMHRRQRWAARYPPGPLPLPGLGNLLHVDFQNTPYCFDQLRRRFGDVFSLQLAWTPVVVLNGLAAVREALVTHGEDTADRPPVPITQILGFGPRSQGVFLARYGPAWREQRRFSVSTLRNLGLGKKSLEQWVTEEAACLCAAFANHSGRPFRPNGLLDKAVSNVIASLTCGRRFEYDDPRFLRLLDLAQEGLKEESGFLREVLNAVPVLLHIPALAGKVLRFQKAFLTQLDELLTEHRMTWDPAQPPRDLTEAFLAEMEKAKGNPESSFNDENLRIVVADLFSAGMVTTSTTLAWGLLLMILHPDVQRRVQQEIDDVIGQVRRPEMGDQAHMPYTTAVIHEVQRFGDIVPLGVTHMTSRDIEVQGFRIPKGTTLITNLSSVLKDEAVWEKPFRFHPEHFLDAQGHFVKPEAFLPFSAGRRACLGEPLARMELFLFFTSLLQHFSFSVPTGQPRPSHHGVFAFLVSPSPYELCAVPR

CYP2D6 = CYP2D6 (Homo sapiens, UniProt P10635); assay: Inhibition of CYP2D6 at 120 uM; assay type: ADME
Chain of CYP2D6 (P10635 whole entry): as above

T1 sequence (Q99705 whole entry): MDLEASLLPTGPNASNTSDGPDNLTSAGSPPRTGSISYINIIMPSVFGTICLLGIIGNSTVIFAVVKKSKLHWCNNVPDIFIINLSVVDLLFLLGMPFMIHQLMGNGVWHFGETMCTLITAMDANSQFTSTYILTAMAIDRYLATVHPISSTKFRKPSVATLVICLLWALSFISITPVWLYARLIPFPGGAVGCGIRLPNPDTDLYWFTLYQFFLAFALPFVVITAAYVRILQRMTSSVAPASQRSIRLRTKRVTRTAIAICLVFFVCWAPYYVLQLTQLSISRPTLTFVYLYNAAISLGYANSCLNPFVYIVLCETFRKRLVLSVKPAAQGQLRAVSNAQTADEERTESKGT

SMILES | Ki [1] [nM] | IC50 [3] [nM] | also measured
CN(C(=O)N1CC[C@H](n2cnc3cc(-c4ccc(Cl)cc4)sc3c2=O)C1)[C@H]1CCN(CCCc2ccccc2)C1 | 6 | 31 | CLint scaled [2]: 41 mL/min/kg; IC50 (Cytochrome P450 2D6): 8600 nM
CN(C(=O)N1CC[C@H](n2cnc3cc(-c4ccc(C(F)(F)F)cc4)sc3c2=O)C1)[C@H]1CCN(C2CCOCC2)C1 | 19 | – | –
CC(C)N1CC[C@H](N(C)C(=O)N2CC[C@H](n3cnc4cc(-c5ccc(Cl)cc5)sc4c3=O)C2)C1 | 5 | 23 | –
CN(C(=O)N1CCC(n2cnc3cc(-c4ccc(Cl)cc4)sc3c2=O)C1)[C@@H]1CCN(C2CCOCC2)C1 (single isomer, unassigned) | 21 | – | –
Cc1ccc(-c2cc3ncn([C@H]4CCN(C(=O)N(C)[C@H]5CCN(C)C5)C4)c(=O)c3s2)cc1 | 15 | – | –
CCc1ccc(-c2cc3ncn([C@H]4CCN(C(=O)N(C)[C@H]5CCN(C)C5)C4)c(=O)c3s2)cc1 | 5 | – | CLint scaled [2]: 200 mL/min/kg; inhibition at 120 µM (CYP2D6): 42%
CN(C(=O)N1CC[C@H](n2cnc3cc(-c4ccc(OC(F)(F)F)cc4)sc3c2=O)C1)[C@H]1CCN(C2CCOCC2)C1 | 18 | – | –
CN(C(=O)N1CC[C@H](n2cnc3cc(-c4ccc(Cl)cc4)sc3c2=O)C1)[C@H]1CCN(Cc2ccoc2)C1 | 4 | 15 | –
CCOc1ccc(-c2cc3ncn([C@H]4CCN(C(=O)N(C)[C@H]5CCN(C)C5)C4)c(=O)c3s2)c(Cl)c1 | 26 | – | –
CN(C(=O)N1CC[C@H](n2cnc3cc(-c4ccc(Cl)cc4)sc3c2=O)C1)[C@H]1CCN(CC(=O)C(C)(C)C)C1 | 17 | 44 | –
CN(C(=O)N1CC[C@H](n2cnc3cc(-c4ccc(Cl)cc4)sc3c2=O)C1)[C@H]1CCN(CC2CC2)C1 | 3 | 10 | –
COc1ccc(-c2cc3ncn([C@H]4CCN(C(=O)N(C)[C@H]5CCN(C6CCOCC6)C5)C4)c(=O)c3s2)c(C)c1 | 28 | – | –
CN(C(=O)N1CC[C@@H](n2cnc3cc(-c4ccc(Cl)cc4)sc3c2=O)C1)[C@H]1CCN(C2CCOCC2)C1 | 154 | – | –
CN(C(=O)N1CC[C@H](n2cnc3cc(-c4ccc(Cl)cc4)sc3c2=O)C1)[C@H]1CCN(CCC2CCOCC2)C1 | 7 | 11 | –
CN(C(=O)N1CC[C@H](n2cnc3cc(-c4ccc(Cl)cc4)sc3c2=O)C1)[C@H]1CCNC1 | 17 | 29 | –
CN(C(=O)N1CC[C@H](n2cnc3cc(-c4ccc(Cl)cc4)sc3c2=O)C1)[C@H]1CCN(C2CCCC2)C1 | 4 | 13 | –
CN(C(=O)N1CC[C@H](n2cnc3cc(-c4ccc(Cl)cc4)sc3c2=O)C1)[C@H]1CCN(CC2CCOCC2)C1 | 7 | 11 | –
CN(C(=O)N1CC[C@@H](n2cnc3cc(-c4ccc(Cl)cc4)sc3c2=O)C1)[C@@H]1CCN(C2CCOCC2)C1 | 69 | – | –

SMILES | Ki [1] [nM] | IC50 [3] [nM] | also measured
CCOc1ccc(-c2cc3ncn([C@H]4CCN(C(=O)N(C)[C@H]5CCN(C6CCOCC6)C5)C4)c(=O)c3s2)c(Cl)c1 | 14 | – | –
CN(C(=O)N1CC[C@H](n2cnc3cc(-c4ccc(Cl)cc4)sc3c2=O)C1)[C@H]1CCN(CC(=O)c2ccc(OC(F)(F)F)cc2)C1 | 80 | – | –
CN1CC[C@H](N(C)C(=O)N2CC[C@H](n3cnc4cc(-c5ccc6c(c5)OCCO6)sc4c3=O)C2)C1 | 143 | – | –
CCc1ccc(-c2cc3ncn([C@H]4CCN(C(=O)N(C)[C@H]5CCN(C6CCOCC6)C5)C4)c(=O)c3s2)cc1 | 8 | – | CLint scaled [2]: 85 mL/min/kg; Activity (Cytochrome P450 2D6): 57 µM
CN1CC[C@H](N(C)C(=O)N2CC[C@H](n3cnc4cc(-c5ccc(OC(F)(F)F)cc5)sc4c3=O)C2)C1 | 39 | – | –
Cc1ccc(-c2cc3ncn([C@H]4CCN(C(=O)N(C)[C@H]5CCN(C)C5)C4)c(=O)c3s2)c(C)c1 | 49 | – | –
CN(C(=O)N1CC[C@H](n2cnc3cc(-c4ccc(Cl)cc4)sc3c2=O)C1)[C@H]1CCN(CC2CCOC2)C1 (some centres not stated) | 4 | 10 | –
Cc1ccc(-c2cc3ncn([C@H]4CCN(C(=O)N(C)[C@H]5CCN(C6CCOCC6)C5)C4)c(=O)c3s2)c(C)c1 | 70 | – | –
CN1CC[C@H](N(C)C(=O)N2CC[C@H](n3cnc4cc(-c5ccc(Cl)cc5)sc4c3=O)C2)C1 | 10 | 20 | CLint scaled [2]: 16 mL/min/kg; Activity (Cytochrome P450 2D6): 99 µM
CN(C(=O)N1CC[C@H](n2cnc3cc(-c4ccc(Cl)cc4)sc3c2=O)C1)[C@H]1CCN(CC2CCCCC2)C1 | 50 | 53 | –
CN1CC[C@H](N(C)C(=O)N2CC[C@H](n3cnc4cc(-c5ccc(C(F)(F)F)cc5)sc4c3=O)C2)C1 | 17 | – | –
CN(C(=O)N1CC[C@H](n2cnc3cc(-c4ccc(Cl)cc4)sc3c2=O)C1)[C@H]1CCN(C2CCC(C)(C)CC2)C1 | 2 | 10 | IC50 (Cytochrome P450 2D6): 3400 nM
COc1ccc(-c2cc3ncn([C@H]4CCN(C(=O)N(C)[C@H]5CCN(C)C5)C4)c(=O)c3s2)c(C)c1 | 46 | – | –
COc1ccc(-c2cc3ncn([C@H]4CCN(C(=O)N(C)[C@H]5CCN(C)C5)C4)c(=O)c3s2)cc1 | 21 | – | –
CN(C(=O)N1CC[C@H](n2cnc3cc(-c4ccc(Cl)cc4)sc3c2=O)C1)[C@H]1CCN(C2CCOCC2)C1 | 3 | 23 | CLint scaled [2]: 24 mL/min/kg; IC50 (Cytochrome P450 2D6): 22500 nM
CN(C(=O)N1CC[C@H](n2cnc3cc(-c4ccc5c(c4)OCCO5)sc3c2=O)C1)[C@H]1CCN(C2CCOCC2)C1 | 45 | – | –
Cc1ccc(-c2cc3ncn([C@H]4CCN(C(=O)N(C)[C@H]5CCN(C6CCOCC6)C5)C4)c(=O)c3s2)cc1 | 14 | – | –
CN(C(=O)N1CC[C@H](n2cnc3cc(-c4ccc(Cl)cc4)sc3c2=O)C1)[C@H]1CCN(C2CCC2)C1 | 1 | 9 | –
